Measurements published in publication PMC6216040, “Repurposing of an old drug: In vitro and in vivo efficacies of buparvaquone against Echinococcus multilocularis” (International Journal for Parasitology: Drugs and Drug …, 2018).

Test system: E. multilocularis metacestodes
Assay: PGI-assay: drug-induced damage on in vitro cultured metacestodes (Pathogen Box screening cascade and EC50)
Format: cell-based, Echinococcus multilocularis
Conditions: for PGI release, % of the Tx-100 control, 5d / PGI release, % of the Tx-100 control, 12d: 10 µM, singlets; for PGI release, % of the Tx-100 control, 5d / PGI release, % of Tx-100 control, average, 5d: 5 days of incubation; for PGI release, % of the Tx-100 control, 12d / PGI release, % of Tx-100 control, average, 12d: 12 days of incubation; for PGI release, % of Tx-100 control, average, 5d / PGI release, % of Tx-100 control, average, 12d: confirmatory screening at 10 µM in triplicates, values as % of Tx-100 control

| SMILES | PGI release, % of the Tx-100 control, 5d | PGI release, % of the Tx-100 control, 12d | PGI release, % of Tx-100 control, average, 5d | PGI release, % of Tx-100 control, average, 12d |
| --- | --- | --- | --- | --- |
| Cc1ccc2c(c1C)NC(=O)C21NN=C(c2ccccc2)S1 (centres unmarked) [MMV019189] | 4.07% | -1.23% |  |  |
| COc1ccc(C2CC(c3cccs3)=NN2C(=O)c2ccco2)cc1OC (centres unmarked) [MMV019234] | 0.82% | 6.10% |  |  |
| CCC(NC(=O)c1ccccc1NC(=O)c1ccc(C)cc1)C(=O)OC (centres unmarked) [MMV019551] | -0.56% | 0.21% |  |  |
| CCN(CC)S(=O)(=O)c1ccc(Cl)c(C(=O)Nc2ccc3nc(C)sc3c2)c1 [MMV019721] | -0.43% | -1.86% |  |  |
| Cc1ccc(S(=O)(=O)N2CCN(C(=O)c3cc(-c4ccccc4)n[nH]3)CC2)cc1 [MMV019742] | 0.16% | 0.57% |  |  |
| CCOc1ccccc1C(=O)Nc1cccc(-c2nc3ncccn3c2C)c1 [MMV019790] | -1.05% | 53.36% | -1.68% | -2.24% |
| Cc1ccc2cc(C3NC(=O)c4ccccc4N3)c(Cl)nc2c1 (centres unmarked) [MMV019807] | 1.08% | 2.05% |  |  |
| O=C(Nc1ccnc(-c2cccnc2)n1)c1cc(C(F)(F)F)cc(C(F)(F)F)c1 [MMV019838] | 1.37% | -0.96% |  |  |
| Cc1nn(C)cc1C(C)Nc1nncc(-c2ccc(C(F)(F)F)cc2)n1 (centres unmarked) [MMV019993] | -0.77% | -1.30% |  |  |
| COc1cccc(CC(=O)N2CCC(n3c(C)nc4ccc(F)cc43)CC2)c1 [MMV020081] | -1.15% | -0.33% |  |  |
| CC1CC1C(=O)NC1CCN(CC2(c3ccccc3)CCCCC2)CC1 (centres unmarked) [MMV020120] | -0.34% | -0.45% |  |  |
| CNC(=O)c1cc(S(=O)(=O)N2CCN(c3ccccn3)CC2)cs1 [MMV020136] | -0.32% | 0.25% |  |  |
| Cc1cc(C(=O)Nc2ccc(-c3ccccc3)cc2)no1 [MMV020152] | 0.07% | -0.81% |  |  |
| CC(C)NCC(=O)Nc1cccc(C(=O)Nc2cccc(C(F)(F)F)c2)c1 [MMV020165] | 0.28% | -0.10% |  |  |
| Cc1ccc(NC(=O)c2cc(S(=O)(=O)NC(C)(C)C)ccc2C)nc1 [MMV020289] | -0.85% | -0.97% |  |  |
| CC(C(=O)N1CCCC1)N1CCN(S(=O)(=O)c2ccc(C(C)(C)C)cc2)CC1 (centres unmarked) [MMV020291] | -0.20% | -0.67% |  |  |
| Cc1nnc(NC(=O)c2cn(-c3ccccc3)nc2-c2ccccc2C)o1 [MMV020320] | -1.15% | 2.11% |  |  |
| COc1ccccc1C(C)NCC(=O)Nc1cc(C(F)(F)F)ccc1Cl (centres unmarked) [MMV020321] | 0.0279% | 2.67% |  |  |
| CC1CCCN(C(=O)C(C)Nc2cc(Cl)ccc2N2CCOCC2)C1 (centres unmarked) [MMV020388] | -0.77% | -1.83% |  |  |
| CC(C)C(C(=O)Nc1ccc(S(=O)(=O)N(C)C)cc1)c1ccc(Cl)cc1 (centres unmarked) [MMV020391] | -0.90% | -4.50% |  |  |
| Cc1ccc(Oc2ccc(NC(=O)CNc3ccccc3N3CCCC3=O)cc2)cc1 [MMV020512] | 0.61% | 1.80% |  |  |
| COc1ccccc1CNC(=O)c1cc(C2CC2)nc2c1cnn2C(C)C [MMV020517] | -0.60% | -1.00% |  |  |
| Cc1cc2ccccc2n1CC(=O)N1CC(C(=O)N2CCCCC2)Oc2ccccc21 (centres unmarked) [MMV020520] | -0.40% | -0.48% |  |  |
| O=C(NC1CC1)c1ccc(N2CCOc3ccc(Cl)cc32)s1 [MMV020537] | 1.89% | 0.98% |  |  |
| CC(C)C(NC(=O)Cc1cccc2ccccc12)C(=O)Nc1cccc(C#N)c1 (centres unmarked) [MMV020591] | -0.00326% | 0.72% |  |  |
| Cc1noc(C)c1C(=O)N1CCCC(c2[nH]c3c(C)cccc3c2-c2ccncc2)C1 (centres unmarked) [MMV020623] | -0.37% | -4.10% |  |  |
| COc1ccc(-c2cncc3ccc(C(=O)NCCCn4ccnc4)nc23)cc1 [MMV020670] | 0.79% | -1.21% |  |  |
| COc1ccc(Cl)cc1NC(=O)CN(C)C(=O)c1cnn(-c2ccccc2)n1 [MMV020710] | -1.15% | -0.53% |  |  |

| SMILES | PGI release, % of the Tx-100 control, 5d | PGI release, % of the Tx-100 control, 12d | PGI release, % of Tx-100 control, average, 5d | PGI release, % of Tx-100 control, average, 12d |
| --- | --- | --- | --- | --- |
| CC(C)(C)c1cc(C(=O)Nc2cccnc2)cc(C(=O)Nc2cccnc2)c1 [MMV020982] | 1.45% | 12.41% |  |  |
| CO/C=C(/C(=O)OC)c1ccccc1Oc1cc(Oc2ccccc2C#N)ncn1 [MMV021057, Azoxystrobin] | -0.65% | -0.77% |  |  |
| Cc1cc(NCC(C)C)c2[nH]nc(-c3ccccc3)c2n1 [MMV021375] | -3.66% | 7.43% |  |  |
| Cc1cc(NCCc2ccccc2)nc(NC(=N)Nc2ccc(Cl)cc2)n1 [MMV021660] | 5.66% | 4.49% |  |  |
| CN1CCC(NCc2cccc(-c3ccc(S(=O)(=O)NCc4ccccc4)cc3)c2)CC1 [MMV022029] | 0.43% | 0.82% |  |  |
| CCN(CC)CCCN1CCN(C(=O)c2cccc(-c3noc(C(F)(F)F)n3)c2)CC1 [MMV022236] | -0.66% | -2.62% |  |  |
| O=C(Nc1ccc(N2CCNCC2)cc1)c1ccn2ncc(-c3cccc(Cl)c3)c2n1 [MMV022478] | 20.71% | 24.08% | 17.77% | 19.68% |
| c1ccc2c(c1)CN(CC1CC1)CC1(CCN(Cc3c[nH]c4cnccc34)CC1)O2 [MMV023183] | -0.64% | -1.24% |  |  |
| Cc1nc(-c2cccc(NCc3ccccc3)c2)[nH]c1C [MMV023227] | 0.40% | 0.67% |  |  |
| Nc1nccc2ccc(-c3ccc4nccn4c3)cc12 [MMV023233] | -0.34% | -0.36% |  |  |
| Nc1ncc(-c2cn[nH]c2)cc1-c1nc2cc(Cl)cnc2[nH]1 [MMV023370] | -2.33% | -3.72% |  |  |
| O=C(NC1CCN(c2ccnc3ccccc23)C1)c1cccc(C(F)(F)F)c1 (centres unmarked) [MMV023388] | -0.73% | -1.23% |  |  |
| NS(=O)(=O)c1cccc(-c2ccc3ncc(N4CCOCC4)nc3c2)c1 [MMV023860] | -0.05% | -0.27% |  |  |
| CC(C)(C)c1cc(C(=O)N2CCN(c3nccnc3C#N)CC2)n(Cc2ccccc2)n1 [MMV023949] | -0.59% | -1.14% |  |  |
| O=C(Nc1cccc(-c2ccc(NCCCN3CCCC3)nc2)c1)c1ccccc1 [MMV023953] | -0.23% | -3.47% |  |  |
| c1cncc(NCc2ccc(-c3cc4ccncc4cc3OC3CCNCC3)s2)c1 [MMV023969] | -3.87% | -3.02% |  |  |
| COc1ccc(-c2cnc3ccc(N4CCCC4)nn23)cc1OC [MMV023985] | -0.66% | -1.01% |  |  |
| O=C(Nc1ccccc1)c1ccc(-c2cc3ccncc3cc2OC2CCNCC2)s1 [MMV024035] | 1.01% | 1.04% |  |  |
| NS(=O)(=O)c1cncc(-c2ccc3nccc(-c4cn[nH]c4)c3n2)c1 [MMV024101] | 0.37% | 1.27% |  |  |
| Cc1ccc(S(=O)(=O)n2cc(-c3ccnc(N)c3)c3cc(Br)cnc32)cc1 [MMV024114] | 3.26% | 5.70% |  |  |
| CN(C)CCNC(=O)N1CCCN(c2ncnc3cc(-c4ccccc4)sc23)CC1 [MMV024195] | 1.72% | 5.34% |  |  |
| Cc1ccc2[nH]c(C3CCCNC3)c(-c3ccncc3)c2c1 (centres unmarked) [MMV024311] | -0.16% | -1.97% |  |  |
| O=C(NC1CC1)c1ccc(N2CCC(Cc3ccccc3)CC2)nc1 [MMV024397] | 0.75% | 37.30% | 0.18% | -0.13% |
| O=C(Nc1cccc(Cl)c1)c1cnc(N2CCN(c3ccncc3)CC2)c(Cl)c1 [MMV024406] | 4.18% | 4.57% |  |  |
| CN(C(=O)c1cc2c(-c3cncnc3)cccc2[nH]1)c1ccccc1 [MMV024443] | -1.32% | 3.28% |  |  |
| Cc1cccc(C(=O)Nc2ccnc(N(C)C3CCN(CC(C)C)CC3)c2)c1 [MMV024829] | 0.62% | -0.07% |  |  |
| O=C(Nc1ccc(N2CCNCC2)nc1)c1oc(-c2ccccc2)nc1C(F)(F)F [MMV024937] | 14.66% | 18.16% |  |  |
